Two molecules from PubChem BioAssay (NCI) can be followed below.

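Following 48 hours of exposure in 96-well plates, responses at five concentrations were used to interpolate endpoints linearly. Definition used: TGI = concentration required for complete inhibition of growth.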

Some test systems named below: DLD-1 colon; DMS 273 small cell lung; M19-MEL melanoma; P388 leukemia; SN12K1 renal; BT-549 breast.
Common to all, as to test: NCI tumour cell line growth inhibition, 48 h

For `COc1ccc(C2C3CCCC(C3=O)C(c3ccc(OC)cc3)N2N=O)cc1` (stereo unspecified), the TGI with DLD-1 colon is more than 100 µM; in the experiment with DMS 273 small cell lung, 43.6 µM; in the experiment on M19-MEL melanoma, 99.2 µM; with P388 leukemia, 42.9 µM; with SN12K1 renal, more than 79.6 µM.

Consider `CCOC(=O)Cc1cnc(NC(NC(=O)CC)(C(F)(F)F)C(F)(F)F)s1`, for which the TGI with BT-549 breast is more than 100 µM.
